Columns and labels:
[1] = target: T1, IDH1 R132H (Homo sapiens, UniProt O75874, R132H); assay: Biochemical assay for IDH inhibition (NADPH fluorescence), mutant IDH1 R132H; conditions: 50 nM IDH1-R132H, 1 hour pre-incubation, in triplet
T1 construct: 6xHis
Summary of the method: (§1)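 The read-out was the linear-phase loss of NADPH fluorescence (340/460 nm) over 15 min, background-subtracted and normalized to DMSO wells, giving triplicate IC50 values. Beforehand, R132H (50 nM) or R132C (25 nM) was exposed to compound for 1 h at room temperature with 1.33 mM α-KG at pH 7.5, and the reaction was triggered by adding an 80 μM NADPH solution.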

[2] = target: T2, IDH1 R132C (Homo sapiens, UniProt O75874, R132C); assay: Biochemical assay for IDH inhibition (NADPH fluorescence), mutant IDH1 R132C; conditions: 25 nM IDH1-R132C, 1 hour pre-incubation, in triplet
T2 construct: 6xHis
Summary of the method: as §1

[3] = target: T3, IDH (endogenous IDH1 R132C) in HT1080 cell (Homo sapiens, UniProt O75874, R132C); assay: Cell-based assay for IDH inhibition (decrease of D-2-HG) in HT1080 cells; conditions: human fibrosarcoma cell line HT1080, 16 hours treatment, D-2-HG by LC-MS, in triplet
T3 construct: which harbor endogenous heterozygous IDH1 R132C and R132H mutation respectively and accumulate D-2-HG
Summary of the method: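 LC-MS/MS quantification of D-2-HG, normalized to glutamate, follows a 16 h compound exposure of IDH1 R132C HT1080 cells in DMEM with 10% FBS. Extraction uses pre-chilled 40% methanol/40% acetonitrile in water. Triplicate determinations; IC50 from D-2-HG levels relative to DMSO-treated cells.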

T1 sequence (O75874 whole entry R132H): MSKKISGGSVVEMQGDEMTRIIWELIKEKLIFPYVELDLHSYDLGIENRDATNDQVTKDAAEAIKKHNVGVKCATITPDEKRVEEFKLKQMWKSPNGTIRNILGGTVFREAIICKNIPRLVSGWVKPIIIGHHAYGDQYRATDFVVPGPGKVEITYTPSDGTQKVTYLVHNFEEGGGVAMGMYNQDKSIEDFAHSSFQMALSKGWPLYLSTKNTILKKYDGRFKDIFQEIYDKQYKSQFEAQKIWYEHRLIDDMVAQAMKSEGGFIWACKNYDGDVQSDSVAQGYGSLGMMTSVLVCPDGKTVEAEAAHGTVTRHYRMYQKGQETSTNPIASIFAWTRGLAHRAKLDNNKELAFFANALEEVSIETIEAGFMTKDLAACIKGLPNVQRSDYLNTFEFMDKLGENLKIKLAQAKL
T3 sequence (O75874 2-414 R132C): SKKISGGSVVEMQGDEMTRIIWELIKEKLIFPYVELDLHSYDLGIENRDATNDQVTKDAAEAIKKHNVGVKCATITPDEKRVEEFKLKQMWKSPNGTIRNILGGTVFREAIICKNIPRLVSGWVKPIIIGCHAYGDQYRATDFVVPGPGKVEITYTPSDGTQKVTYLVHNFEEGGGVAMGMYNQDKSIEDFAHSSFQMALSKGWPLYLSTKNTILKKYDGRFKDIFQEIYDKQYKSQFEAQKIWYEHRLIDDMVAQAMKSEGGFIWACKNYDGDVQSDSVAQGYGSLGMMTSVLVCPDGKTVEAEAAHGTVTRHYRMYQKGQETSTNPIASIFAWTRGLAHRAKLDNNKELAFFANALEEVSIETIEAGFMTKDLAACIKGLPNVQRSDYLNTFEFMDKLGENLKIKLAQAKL
T2 sequence (O75874 whole entry R132C): as the sequence (O75874 whole entry R132H) above, with H132C counted along it

SMILES	IC50 [1]	IC50 [2]	IC50 [3]
C[C@H](Nc1nccc2c1CN(CC(F)CF)C2=O)c1ccc(-c2ccnc(C(C)(C)C)c2)c(F)c1 (stereo partly drawn) [Compound 39, 4-(((S)-1-(4-(2-(tert-butyl)pyridin-4-yl)-3-fluorophenyl)ethyl)amino)-2-(2,3-difluoropropyl)-2,3-dihydro-1H-pyrrolo[3,4-c]pyridin-1-one]	0.1 to 0.5 µM	> 1 µM	> 1 µM
C[C@H](Nc1nccc2c1CN([C@H](C)CF)C2=O)c1ccc(-c2ccnc(C(C)(C)C)c2)c(F)c1 [Compound 40, 4-(((S)-1-(4-(2-(tert-butyl)pyridin-4-yl)-3-fluorophenyl)ethyl)amino)-2-((R)-1-fluoropropan-2-yl)-2,3-dihydro-1H-pyrrolo[3,4-c]pyridin-1-one]	< 0.1 µM	0.1 to 0.5 µM	0.1 to 0.5 µM
CCN1Cc2c(N[C@@H](C)c3ccc(-c4ccc(F)c(C)c4)c(F)c3)ncc(F)c2C1=O [Compound 41, (S)-4-((1-(2,4′-difluoro-3′-methyl-[1,1′-biphenyl]-4-yl)ethyl)amino)-2-ethyl-7-fluoro-2,3-dihydro-1H-pyrrolo[3,4-c]pyridin-1-one]	0.1 to 0.5 µM	0.5 to 1 µM	> 1 µM
CCN1Cc2c(ccnc2N[C@@H](C)c2ccc(-c3ccnc(C(C)(C)C)c3)c(F)c2F)C1=O [Compound 42, (S)-4-((1-(4-(2-(tert-butyl)pyridin-4-yl)-2,3-difluorophenyl)ethyl)amino)-2-ethyl-2,3-dihydro-1H-pyrrolo[3,4-c]pyridin-1-one]	< 0.1 µM	0.1 to 0.5 µM	0.1 to 0.5 µM
CCN1Cc2c(ccnc2N[C@@H](C)c2cc(F)c(-c3ccnc(C(C)(C)C)c3)c(F)c2)C1=O [Compound 43, (S)-4-((1-(4-(2-(tert-butyl)pyridin-4-yl)-3,5-difluorophenyl)ethyl)amino)-2-ethyl-2,3-dihydro-1H-pyrrolo[3,4-c]pyridin-1-one]	< 0.1 µM	< 0.1 µM	0.1 to 0.5 µM
CCN1Cc2c(ccnc2N[C@@H](C)c2cnc(-c3cc(C(C)(C)C)ccn3)c(F)c2)C1=O [Compound 44, (S)-4-((1-(4′-(tert-butyl)-3-fluoro-[2,2′-bipyridin]-5-yl)ethyl)amino)-2-ethyl-2,3-dihydro-1H-pyrrolo[3,4-c]pyridin-1-one]	> 1 µM	> 1 µM	0.5 to 1 µM
CCN1Cc2c(ccnc2N[C@@H](C)c2cc(C)c(-c3ccnc(C(F)(F)F)c3)cn2)C1=O [Compound 45, (S)-2-ethyl-4-((1-(4-methyl-2′-(trifluoromethyl)-[3,4′-bipyridin]-6-yl)ethyl)amino)-2,3-dihydro-1H-pyrrolo[3,4-c]pyridin-1-one]	> 1 µM	> 1 µM	> 1 µM
CCN1Cc2c(ccnc2N[C@@H](C)c2ccc(-c3ccnc(C(C)(C)C)c3)cn2)C1=O [Compound 46, (S)-4-((1-(2′-(tert-butyl)-[3,4′-bipyridin]-6-yl)ethyl)amino)-2-ethyl-2,3-dihydro-1H-pyrrolo[3,4-c]pyridin-1-one]	> 1 µM	> 1 µM	> 1 µM
CCN1Cc2c(ccnc2N[C@@H](C)c2ncc(-c3ccccc3)cn2)C1=O [Compound 47, (S)-2-ethyl-4-((1-(5-phenylpyrimidin-2-yl)ethyl)amino)-2,3-dihydro-1H-pyrrolo[3,4-c]pyridin-1-one]	> 1 µM	> 1 µM	> 1 µM
CCN1Cc2c(ccnc2N[C@@H](C)c2ncc(-c3ccc(F)c(C)c3)cn2)C1=O [Compound 48, (S)-2-ethyl-4-((1-(5-(4-fluoro-3-methylphenyl)pyrimidin-2-yl)ethyl)amino)-2,3-dihydro-1H-pyrrolo[3,4-c]pyridin-1-one]	> 1 µM	> 1 µM	> 1 µM
CCN1Cc2c(ccnc2N[C@@H](C)c2ncc(-c3cccc(C)c3F)cn2)C1=O [Compound 49, (S)-2-ethyl-4-((1-(5-(2-fluoro-3-methylphenyl)pyrimidin-2-yl)ethyl)amino)-2,3-dihydro-1H-pyrrolo[3,4-c]pyridin-1-one]	> 1 µM	> 1 µM	> 1 µM
CCN1Cc2c(ccnc2N[C@@H](C)c2ncc(-c3ccc(OC)cc3)cn2)C1=O [Compound 50, (S)-2-ethyl-4-((1-(5-(4-methoxyphenyl)pyrimidin-2-yl)ethyl)amino)-2,3-dihydro-1H-pyrrolo[3,4-c]pyridin-1-one]	> 1 µM	> 1 µM	> 1 µM
CCN1Cc2c(ccnc2N[C@@H](C)c2ccc(Cc3ccc(F)c(C)c3)c(F)c2)C1=O [Compound 51, (S)-2-ethyl-4-((1-(3-fluoro-4-(4-fluoro-3-methylbenzyl)phenyl)ethyl)amino)-2,3-dihydro-1H-pyrrolo[3,4-c]pyridin-1-one]	0.1 to 0.5 µM	0.1 to 0.5 µM	> 1 µM
CCN1Cc2c(ccnc2N[C@@H](C)c2ccc(Cc3ccccc3)c(F)c2)C1=O [Compound 52, (S)-4-((1-(4-benzyl-3-fluorophenyl)ethyl)amino)-2-ethyl-2,3-dihydro-1H-pyrrolo[3,4-c]pyridin-1-one]	0.1 to 0.5 µM	0.1 to 0.5 µM	> 1 µM
CCN1Cc2c(ccnc2N[C@@H](C)c2ncc(Cc3ccc(F)c(C)c3)cn2)C1=O [Compound 54, (S)-2-ethyl-4-((1-(5-(4-fluoro-3-methylbenzyl)pyrimidin-2-yl)ethyl)amino)-2,3-dihydro-1H-pyrrolo[3,4-c]pyridin-1-one]	> 1 µM	> 1 µM	> 1 µM
CCN1Cc2c(ccnc2N[C@@H](C)c2ccc(CN3CCC(F)(F)CC3)c(F)c2)C1=O [Compound 55, (S)-4-((1-(4-((4,4-difluoropiperidin-1-yl)methyl)-3-fluorophenyl)ethyl)amino)-2-ethyl-2,3-dihydro-1H-pyrrolo[3,4-c]pyridin-1-one]	> 1 µM	> 1 µM	> 1 µM
CCN1Cc2c(ccnc2N[C@@H](C)c2cn(-c3ccnc(C(C)(C)C)c3)cn2)C1=O [Compound 56, (S)-4-((1-(1-(2-(tert-butyl)pyridin-4-yl)-1H-imidazol-4-yl)ethyl)amino)-2-ethyl-2,3-dihydro-1H-pyrrolo[3,4-c]pyridin-1-one]	> 1 µM	> 1 µM	> 1 µM
CCN1Cc2c(N[C@@H](C)c3cn(-c4ccc(F)cc4)cn3)ncc(F)c2C1=O [Compound 57, (S)-2-ethyl-7-fluoro-4-((1-(1-(4-fluorophenyl)-1H-imidazol-4-yl)ethyl)amino)-2,3-dihydro-1H-pyrrolo[3,4-c]pyridin-1-one]	> 1 µM	> 1 µM	> 1 µM
CCN1Cc2c(ccnc2N[C@H](C)c2cn(-c3ccc(Cl)cc3)cn2)C1=O [Compound 58, (R)-4-((1-(1-(4-chlorophenyl)-1H-imidazol-4-yl)ethyl)amino)-2-ethyl-2,3-dihydro-1H-pyrrolo[3,4-c]pyridin-1-one]	> 1 µM	> 1 µM	> 1 µM
CCN1Cc2c(ccnc2N[C@@H](C)c2ccc(-n3ccc(C)n3)c(F)c2)C1=O [Compound 59, (S)-2-ethyl-4-((1-(3-fluoro-4-(3-methyl-1H-pyrazol-1-yl)phenyl)ethyl)amino)-2,3-dihydro-1H-pyrrolo[3,4-c]pyridin-1-one]	> 1 µM	> 1 µM	> 1 µM
CCN1Cc2c(ccnc2N[C@@H](C)c2ccc(C(=O)c3ccccc3)c(F)c2)C1=O [Compound 60, (S)-4-((1-(4-benzoyl-3-fluorophenyl)ethyl)amino)-2-ethyl-2,3-dihydro-1H-pyrrolo[3,4-c]pyridin-1-one]	> 1 µM	> 1 µM	> 1 µM
CCN1Cc2c(ccnc2N[C@@H](C)c2ccc(C(=O)c3cccnc3)c(F)c2)C1=O [Compound 61, (S)-2-ethyl-4-((1-(3-fluoro-4-nicotinoylphenyl)ethyl)amino)-2,3-dihydro-1H-pyrrolo[3,4-c]pyridin-1-one]	> 1 µM	> 1 µM	> 1 µM
CCN1Cc2c(ccnc2N[C@@H](C)c2ccc(C(=O)NC3CCCCC3)c(Cl)c2)C1=O [Compound 62, (S)-2-chloro-N-cyclohexyl-4-(1-((2-ethyl-1-oxo-2,3-dihydro-1H-pyrrolo[3,4-c]pyridin-4-yl)amino)ethyl)benzamide]	> 1 µM	> 1 µM	> 1 µM
CCN1Cc2c(ccnc2N[C@@H](C)c2cc(C(C)(C)C)ncc2F)C1=O [Compound 63, (S)-4-((1-(2-(tert-butyl)-5-fluoropyridin-4-yl)ethyl)amino)-2-ethyl-2,3-dihydro-1H-pyrrolo[3,4-c]pyridin-1-one]	> 1 µM	> 1 µM	> 1 µM
CCN1Cc2c(ccnc2N[C@@H](C)c2cc3cc(Cl)ccc3[nH]c2=O)C1=O [Compound 64, (S)-6-chloro-3-(1-((2-ethyl-1-oxo-2,3-dihydro-1H-pyrrolo[3,4-c]pyridin-4-yl)amino)ethyl)quinolin-2(1H)-one]	0.1 to 0.5 µM	> 1 µM	> 1 µM
CCN1Cc2c(N[C@@H](C)c3ccc(Oc4ccc(C)cc4)c(F)c3)ncnc2C1=O [Compound 65, 6-ethyl-4-[[(1S)-1-[3-fluoro-4-(4-methylphenoxy)phenyl]ethyl]amino]-5H-pyrrolo[3,4-d]pyrimidin-7-one]	> 1 µM	> 1 µM	0.1 to 0.5 µM

— patent US12441725B2, “ISO-citrate dehydrogenase (IDH) inhibitor” (ZHEJIANG METON PHARMACEUTICAL CO., LTD, priority 2019, dated 2025)
